The structures appear in SMILES notation. Values joined by “and” are separate entries in the source; they are usually repeats but may differ in a detail not shown here. Identical values can stand only once.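 Protocol summary: plate cells (96-well), add compound at 5 concentrations, incubate 48 h, interpolate endpoints linearly. GI50 is the concentration that inhibits growth by half. TGI denotes the concentration required for complete inhibition of growth.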

TGI and GI50 data for 14 molecules are collected here from PubChem BioAssay (NCI).

What all share (experiment): NCI-60 cell line screen, 48 h
Experiment [1] deals with HOP-62 NSCLC.
In experiment [2] the test system is TK-10 renal.
The test system of experiment [3] is MOLT-4 leukemia.
Experiment [4] deals with HCT-15 colon.
The subject of experiment [5] is SK-MEL-28 melanoma.
For experiment [6], the system named is OVCAR-3 ovarian.
Experiment [7] relates to A498 renal.
Experiment [8] concerns SF-268 CNS.
Experiment [9] concerns UACC-62 melanoma.

Turning to `C=C[C@H]1CN2CC[C@H]1C[C@@H]2[C@@H](O)c1ccnc2ccccc12`, the TGI in experiment [1], in experiment [2], in [3], in experiment [4], in experiment [5] and in experiment [6] was greater than 100 µM throughout. Moreover, the TGI in [7], in [8] and in experiment [9] was greater than 100 µM each time.
Regarding `CC1=Nn2c(nc3sc4c(c3c2=O)CCCC4)SC1`, the TGI is greater than 100 µM in experiment [1]; greater than 100 µM in experiment [2]; greater than 94.6 µM in [3]; greater than 100 µM in [4]; greater than 100 µM in [5]; greater than 100 µM in experiment [6]. Also, the TGI in experiment [7], in experiment [8] and in [9] was greater than 100 µM each time.
For the molecule `CC1=C(C#N)S(=O)(=O)c2c(oc(C)c2C)N1`, the TGI in [1], in experiment [2], in experiment [3], in experiment [4], in [5] and in experiment [6] was greater than 100 µM each time. In addition, the TGI in experiment [7], in experiment [8] and in [9] was greater than 100 µM each time.
With `Clc1ccc(-c2nc(-c3ccc(Cl)cc3)[s+]s2)cc1`, the TGI was greater than 100 µM in experiment [1]; 86.5 µM in [2]; greater than 100 µM in [3]; greater than 100 µM in [4]; greater than 100 µM in experiment [5]; greater than 100 µM in experiment [6]. The TGI in experiment [7], in experiment [8] and in [9] was greater than 100 µM in each case.
Regarding `COC1C(O)=C2C(=O)OC(C)(O)/C=C/C=C\C=C/C=C/C(c3ccccc3)NC(=O)/C=C/C=C/C=C/C=C/C2(C)C1O` (centres undefined), the GI50 in [1] is 41 nM; in [3], 69.7 nM; in [5] it was 257 nM; in experiment [6], 114 nM. The TGI in experiment [1] was 0.212 µM and 0.193 µM; in [2], 0.0668 µM; in experiment [4], 0.0526 µM; in experiment [5], 0.175 µM and 0.927 µM; in [6], 0.218 µM and 0.349 µM; in [7] it was 0.0976 µM. For the same molecule, the TGI in experiment [8] is 0.156 µM and 0.127 µM; in [9], 0.258 µM.
For the molecule `CN(C)c1ccc(C(c2ccc(N(C)C)cc2)c2ccc([N+](=O)[O-])cc2)cc1`, the TGI in experiment [1], in experiment [2], in [3], in experiment [4], in experiment [5] and in [6] was greater than 100 µM each time. The TGI in experiment [7], in experiment [8] and in [9] was greater than 100 µM each time.
Consider `CN(C)c1ccc(/C=C2\N=C(c3ccccc3)N(c3nc4c(Cl)cc(Cl)cc4s3)C2=O)cc1`, for which the TGI in experiment [1], in [2], in [3], in [4], in experiment [5] and in experiment [6] was greater than 100 µM throughout. Further, the TGI in experiment [7] is 92.3 µM; in [8], greater than 100 µM; in experiment [9] it was greater than 100 µM.
Turning to `O=[N+]([O-])C(=C(NCc1ccccc1)NCc1ccccc1)C(Cl)=C(Cl)Cl`, the TGI in [1] is greater than 100 µM; in [2], greater than 100 µM; in experiment [3] it was 52 µM; in [4], 62.8 µM; in [5], greater than 100 µM; in [6] it was 69.2 µM. The TGI in [7] is greater than 100 µM; in experiment [8] it was 69.4 µM; in experiment [9] it was 98.7 µM.
For the molecule `Cc1nc2ccccc2n1CCc1nc2ccccc2s1`, the TGI in experiment [1] is greater than 100 µM; in experiment [2], greater than 100 µM; in experiment [3], 53.6 µM; in [4] it was greater than 100 µM; in experiment [5], greater than 100 µM; in experiment [6] it was greater than 100 µM. Besides, the TGI in experiment [7], in [8] and in experiment [9] was greater than 100 µM throughout.
As for `CCN(CC)CCNc1ccc(N=Nc2ccc(S(N)(=O)=O)cc2)c2ccccc12`, the TGI is greater than 100 µM in experiment [1]; 40.3 µM in experiment [2]; 25.6 µM in experiment [3]; greater than 100 µM in [4]; 28.1 µM in experiment [5]; 5.55 µM in experiment [6]. In addition, the TGI came to 29.7 µM in experiment [7], 37.8 µM in experiment [8] and 25.7 µM in experiment [9].
As to `COc1ccc2nc3c([N+](=O)[O-])ccc4c3c(c2c1)NCCN4C`, the TGI in experiment [1] turned out to be 3.16 µM; in [2], 51.9 µM; in experiment [3], 27 µM; in experiment [4] it was 2.96 µM; in experiment [5] it was 6.5 µM; in experiment [6], 5.62 µM. Moreover, the TGI is 3.85 µM in experiment [7], 7.63 µM in experiment [8] and 2.88 µM in experiment [9].
On to `O=c1[nH]cnc2c1ncn2[C@H]1CO[C@@H](CO)[C@@H]1O`, for which the TGI in experiment [1], in [2], in [3], in experiment [4], in experiment [5] and in experiment [6] was greater than 100 µM each time. In addition, the TGI in experiment [7], in experiment [8] and in experiment [9] was greater than 100 µM throughout.
For the molecule `CC[C@H]1C=CCC[C@@]2(C[C@@H]3CC[C@@H]4[C@H](C(=O)OCCCCCCCCCCCCCCCC(=O)N(CCCN)C[C@@H](O)CCN)[C@]5(CCC[C@@H](C)O5)NC(=[N+]34)N2)O1`, the TGI was 2.94 µM in experiment [1]; 4.52 µM in experiment [2]; 0.524 µM in experiment [3]; greater than 10 µM in [4]; 2.9 µM in experiment [5]; greater than 10 µM in experiment [6]. Moreover, the TGI in [7] was 1.74 µM; in experiment [8] it was 2.41 µM; in experiment [9] it was 0.239 µM.
As to `CC(=O)Oc1ccc2c(c1)CC[C@@H]1C2[C@@H](O[N+](=O)[O-])C[C@@]2(C)C1CC[C@@H]2O` (some centres undefined), the TGI was greater than 60.5 µM in [1]; greater than 100 µM in [2]; greater than 85.8 µM in experiment [3]; greater than 100 µM in [4]; greater than 100 µM in experiment [5]; greater than 86.9 µM in experiment [6]. Besides, the TGI is 72.5 µM in experiment [7], greater than 83 µM in [8] and greater than 100 µM in experiment [9].
